# “Also recorded” adds a separate entry of the source.
# Biological target: T1, Acetylcholinesterase from electrophorus electricus (electric eel) (Electrophorus electricus, UniProt O42275)
# T1 construct: purchased Sigma (St. Louis, MO)
# Assay: biochemical
# Details: modified Ellman's method, eeAChE; read-out: AchE IC50
# Source text: Acetylcholinesterase from electrophorus electricus (electric eel), horse butyrylcholinesterase, Acetylcholine iodide, S-butyrylthiocholine chloride and 5,5′-dithio-bis-nitrobenzoic acid (DTNB) were purchased from the Sigma (St. Louis, MO) while bovine serum albumin (BSA) purchased from Research and Diagnostic Technology (RDT). Buffers and other chemicals were purchases from pure chemicals as a pure experimental grade. All the reagents and experimental conditions were same as described by previous reports. […] Acetylcholinesterase and butyrylcholinesterase inhibition was performed spectrometrically using acetylthiocholine and butyrylthiocholine as a substrate. Experiment was performed with slight modification in the method described by Ellman et al.[78]. Then, […] sodium phosphate buffer (pH 8.0), enzyme preparation and different concentration of test compound was mixed and incubated for 30 min followed by the addition of DTNB and the reactions was initiated by adding respective enzyme substrate like acetylthiocholine iodide, butyrylthiocholine chloride for Acetylcholinesterase and butyrylcholinesterase inhibition assay respectively. The hydrolysis of acetylthiocholine or butyrylthiocholineyield a dark yellow 5-thio-2-nitrobenzoate anion because of the reaction between DTNB with enzyme and enzyme substrate. […] Percentage inhibition was calculated taking negative control as 100%.
# T1 sequence (O42275 24-633): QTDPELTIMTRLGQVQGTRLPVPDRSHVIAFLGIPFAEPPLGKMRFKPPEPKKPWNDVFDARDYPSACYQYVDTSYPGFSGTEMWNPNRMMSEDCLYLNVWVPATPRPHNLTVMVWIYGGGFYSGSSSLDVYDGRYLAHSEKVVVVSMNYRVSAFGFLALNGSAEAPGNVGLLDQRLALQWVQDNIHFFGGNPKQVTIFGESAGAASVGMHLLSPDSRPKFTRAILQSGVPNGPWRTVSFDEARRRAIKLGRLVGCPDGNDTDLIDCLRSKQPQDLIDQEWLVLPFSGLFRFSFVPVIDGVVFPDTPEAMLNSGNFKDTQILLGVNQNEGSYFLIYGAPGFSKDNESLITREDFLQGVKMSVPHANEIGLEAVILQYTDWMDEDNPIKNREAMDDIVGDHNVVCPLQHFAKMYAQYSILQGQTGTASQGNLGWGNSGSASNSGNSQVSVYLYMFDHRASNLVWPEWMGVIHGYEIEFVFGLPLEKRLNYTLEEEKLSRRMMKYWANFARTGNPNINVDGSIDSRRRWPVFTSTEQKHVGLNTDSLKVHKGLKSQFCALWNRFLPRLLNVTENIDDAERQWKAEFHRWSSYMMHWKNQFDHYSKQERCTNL
row,Structure (SMILES),IC50
1,"COc1ccccc1OCCN(CC(=O)CC(O)c1cccc(-c2ccccc2)c1)Cc1ccccc1 (stereo not drawn) [5c, 4-([1,1′-biphenyl]-3-yl)-1-(benzyl(2-(2-methoxyphenoxy)ethyl)amino)-4-hydroxybutan-2-one]",58.3 µM
2,"COc1ccccc1OCCN(Cc1ccccc1)CC(O)CC(O)c1cccc2[nH]c3ccccc3c12 (stereo not drawn) [6a, 4-(benzyl(2-(2-methoxyphenoxy)ethyl)amino)-1-(9H-carbazol-4-yl)butane-1,3-diol]",66 µM

# Biological target: T2, horse butyrylcholinesterase (Equus caballus, UniProt P81908)
# T2 construct: purchased Sigma (St. Louis, MO)
# Assay: biochemical
# Assay type: biochemical
# Details: modified Ellman's method, horse BuChE; read-out: bAchE IC50
# Source text: Acetylcholinesterase from electrophorus electricus (electric eel), horse butyrylcholinesterase, Acetylcholine iodide, S-butyrylthiocholine chloride and 5,5′-dithio-bis-nitrobenzoic acid (DTNB) were purchased from the Sigma (St. Louis, MO) while bovine serum albumin (BSA) purchased from Research and Diagnostic Technology (RDT). Buffers and other chemicals were purchases from pure chemicals as a pure experimental grade. All the reagents and experimental conditions were same as described by previous reports. […] Acetylcholinesterase and butyrylcholinesterase inhibition was performed spectrometrically using acetylthiocholine and butyrylthiocholine as a substrate. Experiment was performed with slight modification in the method described by Ellman et al.[78]. Then, […] sodium phosphate buffer (pH 8.0), enzyme preparation and different concentration of test compound was mixed and incubated for 30 min followed by the addition of DTNB and the reactions was initiated by adding respective enzyme substrate like acetylthiocholine iodide, butyrylthiocholine chloride for Acetylcholinesterase and butyrylcholinesterase inhibition assay respectively. The hydrolysis of acetylthiocholine or butyrylthiocholineyield a dark yellow 5-thio-2-nitrobenzoate anion because of the reaction between DTNB with enzyme and enzyme substrate. […] Solvent used for compound dilution was used for the negative control. Percentage inhibition was calculated taking negative control as 100%.
# T2 sequence (P81908 whole entry): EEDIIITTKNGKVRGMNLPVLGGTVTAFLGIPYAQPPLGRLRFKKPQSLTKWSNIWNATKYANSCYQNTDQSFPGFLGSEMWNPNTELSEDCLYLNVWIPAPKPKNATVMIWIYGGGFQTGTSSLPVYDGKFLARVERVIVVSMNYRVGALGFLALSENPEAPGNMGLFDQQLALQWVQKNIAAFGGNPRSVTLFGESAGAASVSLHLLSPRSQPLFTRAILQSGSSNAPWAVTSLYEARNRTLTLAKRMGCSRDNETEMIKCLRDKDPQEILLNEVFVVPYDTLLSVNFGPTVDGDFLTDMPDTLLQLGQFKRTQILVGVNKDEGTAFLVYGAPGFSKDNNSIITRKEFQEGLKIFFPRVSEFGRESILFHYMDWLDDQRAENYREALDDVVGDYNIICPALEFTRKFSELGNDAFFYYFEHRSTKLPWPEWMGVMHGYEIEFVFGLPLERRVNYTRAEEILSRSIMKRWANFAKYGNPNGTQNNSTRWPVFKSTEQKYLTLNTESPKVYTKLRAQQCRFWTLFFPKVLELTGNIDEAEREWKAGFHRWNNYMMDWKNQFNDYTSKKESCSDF
row,Structure (SMILES),IC50
1,"COc1ccccc1OCCN(CC(=O)CC(O)c1cccc(-c2ccccc2)c1)Cc1ccccc1 (stereo not drawn) [5c, 4-([1,1′-biphenyl]-3-yl)-1-(benzyl(2-(2-methoxyphenoxy)ethyl)amino)-4-hydroxybutan-2-one]",> 500 µM
2,"COc1ccccc1OCCN(Cc1ccccc1)CC(O)CC(O)c1cccc2[nH]c3ccccc3c12 (stereo not drawn) [6a, 4-(benzyl(2-(2-methoxyphenoxy)ethyl)amino)-1-(9H-carbazol-4-yl)butane-1,3-diol]",> 500 µM

# Same assay, conditions: result in words
row,Structure (SMILES),effect against BchE
1,"COc1ccccc1OCCN(CC(=O)CC(O)c1cccc(-c2ccccc2)c1)Cc1ccccc1 (stereo not drawn) [5c, 4-([1,1′-biphenyl]-3-yl)-1-(benzyl(2-(2-methoxyphenoxy)ethyl)amino)-4-hydroxybutan-2-one]",without inhibiting; also recorded: did not showed the effect
2,"COc1ccccc1OCCN(Cc1ccccc1)CC(O)CC(O)c1cccc2[nH]c3ccccc3c12 (stereo not drawn) [6a, 4-(benzyl(2-(2-methoxyphenoxy)ethyl)amino)-1-(9H-carbazol-4-yl)butane-1,3-diol]",without inhibiting; also recorded: did not showed the effect

# Tested on: AChE
# Assay: not given
# Details: ChEMBL dataset, Ellman assay ref 43; cited from earlier work
row,Structure (SMILES),Exp. pIC50
1,O=C1c2ccccc2C(=O)N1CCC1CCN(Cc2ccccc2)CC1 [CHEMB L106891],7.097
2,O=C(CCC1CCN(Cc2ccccc2)CC1)c1ccc2c(c1)NCCC2 [CHEMBL73593],6.785
3,O=C(CCC1CCN(Cc2ccccc2)CC1)c1ccc2c(c1)CCN2 [CHEMBL75110],7.699
4,CN1CCCc2ccc(C(=O)CCC3CCN(Cc4ccccc4)CC3)cc21 [CHEMBL76470],7.444
5,N#Cc1ccc2c(CCC3CCN(Cc4ccccc4)CC3)noc2c1 [CHEMBL92775],6.996
6,Cc1cc(-c2ccccc2)n[nH]c1=NCCC1CCN(Cc2ccccc2)CC1 [CHEMBL94054],6.495
7,O=C1Cc2c(ccc3c(CCC4CCN(Cc5ccccc5)CC4)noc23)N1 [CHEMBL95020],8.444
8,O=C1c2ccc([N+](=O)[O-])cc2C(=O)N1CCC1CCN(Cc2ccccc2)CC1 [CHEMBL105874],7.903
9,O=C(c1ccc([N+](=O)[O-])cc1)N(CCC1CCN(Cc2ccccc2)CC1)c1ccccc1 [CHEMBL126354],8.268
10,COc1cccc(N(CCC2CCN(Cc3ccccc3)CC2)C(C)=O)c1 [CHEMBL127527],7.337
11,O=C(Nc1ccc2c(c1)C(=O)N(CCC1CCN(Cc3ccccc3)CC1)C2=O)c1ccccc1 [CHEMBL138107],8.921
12,Nc1cccc2c1C(=O)N(CCC1CCN(Cc3ccccc3)CC1)C2=O [CHEMBL138442],7.959
13,O=c1[nH]c2cc(Cl)ccc2c(=O)n1CCC1CCN(Cc2ccccc2)CC1 [CHEMBL138552],8.347
14,O=C1c2cccnc2C(=O)N1CCC1CCN(Cc2ccccc2)CC1 [CHEMBL140106],7.886
15,O=c1c2ccccc2ncn1CCC1CCN(Cc2ccccc2)CC1 [CHEMBL140328],5.921
16,O=C(c1ccc(F)cc1)N(CCC1CCN(Cc2ccccc2)CC1)c1ccccc1 [CHEMBL140737],7.745
17,COc1ccc2c(c1)C(=O)N(CCC1CCN(Cc3ccccc3)CC1)C2=O [CHEMBL140770],8.097
18,O=C1Cc2ccccc2CN1CCC1CCN(Cc2ccccc2)CC1 [CHEMBL140990],7.77
19,O=C(c1ccccc1)c1ccc2c(c1)C(=O)N(CCC1CCN(Cc3ccccc3)CC1)C2=O [CHEMBL140999],8.62
20,O=C1c2cccc([N+](=O)[O-])c2C(=O)N1CCC1CCN(Cc2ccccc2)CC1 [CHEMBL141001],8.046
21,O=C1Cc2ccccc2C(=O)N1CCC1CCN(Cc2ccccc2)CC1 [CHEMBL141042],7.638
22,CC(=O)N(CCC1CCN(Cc2ccccc2)CC1)c1cccc(F)c1 [CHEMBL141167],7.187

row,Structure (SMILES),Exp. pIC50
1,O=c1c2ccccc2ccn1CCC1CCN(Cc2ccccc2)CC1 [CHEMBL141203],5.959
2,O=C1Nc2ccccc2CN1CCC1CCN(Cc2ccccc2)CC1 [CHEMBL141276],7.886
3,O=C(Nc1cccc2c1C(=O)N(CCC1CCN(Cc3ccccc3)CC1)C2=O)c1ccccc1 [CHEMBL141622],6.469
4,COc1ccc(N(CCC2CCN(Cc3ccccc3)CC2)C(C)=O)cc1 [CHEMBL141801],6.155
5,O=C1c2ccccc2NCN1CCC1CCN(Cc2ccccc2)CC1 [CHEMBL141810],6.097
6,CCC(=O)N(CCC1CCN(Cc2ccccc2)CC1)c1ccccc1 [CHEMBL141853],6.081
7,COc1ccc(C(=O)N(CCC2CCN(Cc3ccccc3)CC2)c2ccccc2)cc1 [CHEMBL141873],6.229
8,O=C1c2ccccc2CCN1CCC1CCN(Cc2ccccc2)CC1 [CHEMBL142014],6
9,O=C(CCC1CCN(Cc2ccccc2Cl)CC1)c1ccc2c(c1)CCN2 [CHEMBL306175],7.119
10,Cc1cccc(CN2CCC(CCC(=O)c3ccc4c(c3)CCN4)CC2)c1 [CHEMBL306179],7.301
11,COc1ccccc1CN1CCC(CCC(=O)c2ccc3c(c2)CCN3)CC1 [CHEMBL306776],6.09
12,CCCN1CCCCc2ccc(C(=O)CCC3CCN(Cc4ccccc4)CC3)cc21 [CHEMBL307513],5.876
13,O=C(CCC1CCN(Cc2cccc([N+](=O)[O-])c2)CC1)c1ccc2c(c1)NCCCC2 [CHEMBL307832],6.409
14,O=C(CCC1CCN(Cc2cccc(F)c2)CC1)c1ccc2c(c1)NCCCC2 [CHEMBL308093],6.839
15,CCN1CCc2cc(C(=O)CCC3CCN(Cc4ccccc4)CC3)ccc21 [CHEMBL308793],7.959
16,O=C(CCC1CCN(Cc2cccc(F)c2)CC1)c1ccc2c(c1)CCN2 [CHEMBL308807],7.796
17,COc1ccccc1CN1CCC(CCC(=O)c2ccc3c(c2)NCCCC3)CC1 [CHEMBL309173],5.576
18,CCN1CCCCc2ccc(C(=O)CCC3CCN(Cc4ccccc4)CC3)cc21 [CHEMBL310467],6.425
19,CN1CCc2cc(C(=O)CCC3CCN(Cc4ccccc4)CC3)ccc21 [CHEMBL311017],8
20,O=C1Cc2cc3onc(CCC4CCN(Cc5ccccc5)CC4)c3cc2N1 [CHEMBL328468],9.022
21,O=C1CCc2cc3c(CCC4CCN(Cc5ccccc5)CC4)noc3cc2N1 [CHEMBL329231],9.244
22,Brc1ccc2c(CCC3CCN(Cc4ccccc4)CC3)noc2c1 [CHEMBL330004],7.301

row,Structure (SMILES),Exp. pIC50
1,O=C1c2ccccc2CN1CCC1CCN(Cc2ccccc2)CC1 [CHEMBL333909],7.009
2,O=C(c1ccncc1)N(CCC1CCN(Cc2ccccc2)CC1)c1ccccc1 [CHEMBL340621],7.194
3,O=C1Cc2cc3c(CCC4CCN(Cc5ccccc5)CC4)noc3cc2N1 [CHEMBL359570],9.481
4,O=C(CCC1CCN(Cc2cccc(Cl)c2)CC1)c1ccc2c(c1)NCCCC2 [CHEMBL420378],6.478
5,Cc1ccc2onc(CCC3CCN(Cc4ccccc4)CC3)c2c1 [CHEMBL433379],8.108
6,CC(=O)Nc1ccc2c(c1)C(=O)N(CCC1CCN(Cc3ccccc3)CC1)C2=O [CHEMBL433678],8.553
7,O=C(CCC1CCN(Cc2ccccc2)CC1)c1ccc2c(c1)OCO2 [CHEMBL1082434],7.523
8,CCn1c(C)nc2cc(C(=O)CCC3CCN(Cc4ccccc4)CC3)ccc21 [CHEMBL1082435],8.367
9,O=C(CCC1CCN(Cc2ccccc2)CC1)c1ccc2[nH]c(-c3ccccc3)nc2c1 [CHEMBL1082436],7.481
10,CN(CCCCCNc1ccc(-c2ccccc2)nn1)Cc1ccccc1 [CHEMBL1083057],6.131
11,c1ccc(CN2CCC(Nc3ccc(-c4ccccc4)nn3)CC2)cc1 [CHEMBL1083058],4.187
12,c1ccc(CN2CCC(CNc3ccc(-c4ccccc4)nn3)CC2)cc1 [CHEMBL1083367],4.252
13,CN1CCCc2cc(C(=O)CCC3CCN(Cc4ccccc4)CC3)ccc21 [CHEMBL1083660],7.62
14,O=C(CCC1CCN(Cc2ccccc2)CC1)c1ccc2c(c1)CCCN2 [CHEMBL1083661],7.268
15,O=C(CCC1CCN(Cc2ccccc2)CC1)c1ccc2c(c1)CCCN2c1ccccc1 [CHEMBL1083662],7.268
16,O=C(Nc1ccccc1)c1ccc2c(c1)C(=O)N(CCC1CCN(Cc3ccccc3)CC1)C2=O [CHEMBL1084256],8.658
17,CN(CCCCNc1ccc(-c2ccccc2)nn1)Cc1ccccc1 [CHEMBL1084257],4.959
18,Cc1nc2ccc(C(=O)CCC3CCN(Cc4ccccc4)CC3)cc2s1 [CHEMBL1084275],8.167
19,Cc1nc2ccc(C(=O)CCC3CCN(Cc4ccccc4)CC3)cc2[nH]1 [CHEMBL1084790],7.921
20,O=C(CCC1CCN(Cc2ccccc2)CC1)c1ccc2c(c1)CCN2c1ccccc1 [CHEMBL1085858],7.167
21,CN(CCNc1ccc(-c2ccccc2)nn1)Cc1ccccc1 [CHEMBL1086185],3.77

# Tested on: bAchE
# Assay: not given
# Details: read-out: bAchE IC50; Tacrine (Ellman method); source not given; cited from earlier work
row,Structure (SMILES),IC50
1,Nc1c2c(nc3ccccc13)CCCC2 [Tacrine],0.058 µM

# Source: publication PMC6175823, “Identification of novel acetylcholinesterase inhibitors designed by pharmacophore-based virtual screening, molecular docking and bioassay” (Scientific Reports, 2018)
